Bridge positions count the residues as written; N and C are the ends. Peptide text beside a SMILES is read from it.
Key:
[1] = tested on: mouse lung fibrosis model induced by bleomycin (BLM); assay: Inflammatory and fibrotic pathology (HE, Masson's trichrome) in BLM mouse fibrosis model; type: in vivo; design: scale not given here; conditions: for Inflammatory score Mean: 3 mg/kg intratracheal twice weekly x4 from Day 8, Day 21, HE staining, BLM model 2.25, negative control 0.36; for Fibrosis score Mean: 3 mg/kg intratracheal twice weekly x4 from Day 8, Day 21, Masson's trichrome, BLM model 3.25, negative control 1.01
Experimental: This Example was to assess the inhibitory effect of polypeptides on fibrotic pathology. 6- to 8-week-old male C57/6J mice weighing 18-20 g were used as subjects for the study. The experimental animals were randomized into groups, 6 animals in each group. On the day of modeling (Day 1), a single dose of 0.7 USP/kg of BLM solution was administered via the tracheal route to the BLM group and each peptide-treated group to induce the model. The negative control group received an equal volume of saline. Treatment dosing started on Day 8. Each peptide-treated group received the peptide drug intratracheally at a dosage of 3 mg/kg, while the positive control group received the peptide of SEQ ID NO: 50 at the same dosage, and the administration frequency was twice a week, with a total of 4 administrations. The BLM model group and the negative control group received an equal volume of solvent (saline) as a control. The procedure followed that described in Example 4.
On Day 21, the lung tissues were dissected, washed with saline to remove blood stains, and dried with gauze. Histopathological analysis was then performed on the dissected lung tissues. The lung tissues were perfused with 0.5 mL of paraformaldehyde via the trachea and placed in 4 mL of paraformaldehyde. A small amount of gauze was added to ensure the lung tissues were completely immersed in the fixative solution. The tissues were fixed for more than 24 hours. One lobe of the left lung and four lobes of the right lung were trimmed to the maximum coronal plane, placed in an embedding cassette, dehydrated overnight, and then paraffin-embedded to make 3 μm sections. An autostainer (Leica, model ST5010) was used for Hematoxylin (Herst, lot no. 201905)-Eosin (Chron, lot no.2018070301) (HE) staining, and MASSON'S trichrome (Celestineblue, Chron, lot no. MKCH8129; Aniline blue, Yuanye, lot no. H70J11S115483; Ponceau, Sigma, lot no. SHBM2047) staining. After mounting the sections, they were scanned using a digital panoramic scanner (Zhiyue, model WS-10). For each lung lobe, ≤10 visual fields were captured under a 20× magnification. The severity of inflammation and the severity of fibrosis were assessed using HE staining and Masson's trichrome staining, respectively, to evaluate the inhibitory effects of the polypeptides on inflammatory infiltration and fibrotic deposition at pathological fibrotic sites.

[2] = tested on: human lung adenocarcinoma A549 cells; assay: Transwell tumor cell migration, co-culture with PMA-differentiated THP-1 cells; type: cell-based; conditions: 100 μM polypeptide 48 h, co-culture 24 h; negative control group = 100.00
Experimental: (§1) This Example was to assess the effects of polypeptides on the migration abilities of different tumor cells. The experiment was performed using transwell nested chambers (membrane pore size of 8 μm), where THP-1 cells were inoculated in the lower chamber and treated with 300 nM PMA (Sigma, Catalog No.P1585) for differentiation and chamber-wall adherence, and then treated with 100 μM polypeptide (in the negative control, an equal volume of solvent was added) for 48 hours. The upper chamber was inoculated with tumor cells, human lung adenocarcinoma A549 cells (American Typical Culture Collection, ATCC, CCL-18), and co-cultured for 24 hours; or inoculated with human liver cancer HepG2/C3A cells (ATCC, CRL-10741), and co-cultured for 24 h; or inoculated with human breast cancer MCF7 cells (ATCC, HTB-22), and co-cultured for 48 h. After that, the upper chamber was taken out, fixed with 70% ethanol for 10 min and washed, then stained with Giemsa staining solution (Beyotime, Catalog No.C0131) for 45 min. After washing with double distilled water 2-3 times, unmigrated cells were wiped off the upper layer with a cotton swab. After the chamber was dried, it was observed under a microscope, and five different fields of view under a 100× magnification were randomly selected for counting and statistics. The polypeptides had significant inhibitory effects on the migratory abilities of human lung adenocarcinoma cells, human liver cancer cells, and human breast cancer cells.

[3] = tested on: human liver cancer HepG2/C3A cells; assay: as above; type: cell-based; conditions: 100 μM polypeptide 48 h, co-culture 24 h; negative control group = 100.00
Experimental: as §1

[4] = tested on: human breast cancer MCF7 cells; assay: as above; type: cell-based; conditions: 100 μM polypeptide 48 h, co-culture 48 h; negative control group = 100.00
Experimental: as §1

[5] = tested on: rat fibrotic disease model (bleomycin); assay: Lung index and fibrotic pathology (Masson's trichrome) in bleomycin rat fibrosis model; type: in vivo; conditions: for Lung index Mean(‰): 2 mg/kg intratracheal twice weekly x4 from Day 1, Day 15, BLM model 8.63, negative control 4.62; for Fibrosis score Mean: 2 mg/kg intratracheal twice weekly x4 from Day 1, Day 15, Masson's trichrome, BLM model 3.34, negative control 0.96
Experimental: This Example was to assess the inhibitory effect of polypeptide administration on the expression levels of pro-fibrotic factors at pathological fibrotic sites. 6- to 8-week-old male SD rats weighing 200 to 220 g were used as subjects for the study. The experimental animals were randomized into groups, 6 animals in each group. On the day of modeling (Day 1), a single dose of 1.8 USP/kg of bleomycin solution was administered via the tracheal route to the BLM model group and each peptide-treated group to induce the model. The negative control group was given an equal volume of saline. Starting on Day 1, each peptide-treated group received intratracheal administration of the peptide at a dosage of 2 mg/kg, with a dosing frequency of twice a week, for a total of four administrations. The BLM model group and the negative control group received an equal volume of solvent (saline) as a control, with the volume being 100 μL. The procedure followed that described in Example 4.
On Day 15, the lung tissues were dissected, washed with saline to remove blood stains, dried with gauze, and weighed. The lung index was calculated (lung index=(wet lung weight/body weight)×1000. This index reflects the general condition of the lung tissue, including edema, inflammation, and fibrosis). Histopathological analysis was performed on the dissected lung tissues. The lung tissues were perfused with 5 mL of paraformaldehyde via the trachea and placed in 40 mL of paraformaldehyde. A small amount of gauze was added to ensure the lung tissues were completely immersed in the fixative solution. The tissues were fixed for more than 24 hours. One lobe of the left lung and four lobes of the right lung were trimmed to the maximum coronal plane, and the left and right lungs were individually placed in two embedding cassettes, and then paraffin-embedded to make 3 μm sections. Masson's trichrome staining was performed as described in Example 7. After digital scanning, for each lung lobe, ≤10 visual fields were captured under a 10× magnification. The severity score of fibrosis was assessed to evaluate the inhibitory effects of the polypeptides on fibrotic deposition at pathological fibrotic sites.

| Molecule | Inflammatory score Mean [1] | Fibrosis score Mean [1] | A549 migration Mean (%) [2] [%] | HEPG2/C3A migration Mean (%) [3] [%] | MCF7 migration Mean (%) [4] [%] | Lung index Mean(‰) [5] | Fibrosis score Mean [5] |
| --- | --- | --- | --- | --- | --- | --- | --- |
| Ac-TQDAEDNTASH-NH2 [SEQ ID NO: 33, Ac-Thr-Gln-Asp-Ala-Glu-Asp-Asn-Thr-Ala-Ser-His-NH2] | 1.27 | 2.64 | 62.89 | 72.07 | 47.13 | 7.37 ‰ | 2.63 |
| C[C@@H]1NC(=O)[C@H](CC(=O)O)NC(=O)[C@H](CCC(N)=O)NC(=O)[C@H]([C@@H](C)O)NC(=O)[C@H](CC(N)=O)NC(=O)[C@H](CC(=O)O)NC(=O)[C@H](CCC(=O)O)NC1=O [SEQ ID NO: 40, cyclo[Thr-Gln-Asp-Ala-Glu-Asp-Asn]] (cyclo(AEDNTQD)) |  |  | 67.97 | 67.27 | 51.27 |  |  |
| Ac-TQDAEDN-NH2 [SEQ ID NO: 06, Ac-Thr-Gln-Asp-Ala-Glu-Asp-Asn-NH2] | 1.65 | 2.65 | 80.41 | 81.77 | 51.95 | 7.17 ‰ | 2.66 |
| CC(=O)N[C@H](C(=O)N[C@H]1CSSC[C@@H](C(=O)O)NC(=O)[C@H](CC(N)=O)NC(=O)[C@H](CC(=O)O)NC(=O)[C@H](CCC(=O)O)NC(=O)[C@H](C)NC(=O)[C@H](CC(=O)O)NC1=O)[C@@H](C)O [SEQ ID NO: 43, Ac-Thr-cyclo[Cys-Asp-Ala-Glu-Asp-Asn-Cys]] (Ac-TCDAEDNC-OH; disulfide 2-8) | 1.46 | 2.59 | 83.37 | 71.02 | 73.84 | 7.11 ‰ | 2.72 |
| Ac-TQDAEDPTA-NH2 [SEQ ID NO: 22, Ac-Thr-Gln-Asp-Ala-Glu-Asp-Pro-Thr-Ala-NH2] | 1.43 | 2.33 | 59.45 | 76.69 | 48.64 | 7.39 ‰ | 2.70 |
| Ac-TQDAEDPTAS-NH2 [SEQ ID NO: 25, Ac-Thr-Gln-Asp-Ala-Glu-Asp-Pro-Thr-Ala-Ser-NH2] | 1.39 | 2.47 | 62.95 | 63.99 | 61.75 | 7.42 ‰ | 2.62 |
| C[C@@H]1NC(=O)[C@H]([C@@H](C)O)NC(=O)[C@H](CC(N)=O)NC(=O)[C@H](CC(=O)O)NC(=O)[C@H](CCC(=O)O)NC(=O)[C@@H]2CCCN2C(=O)[C@H](CC(=O)O)NC(=O)[C@H](CCC(N)=O)NC(=O)[C@H]([C@@H](C)O)NC(=O)[C@H](CO)NC1=O [SEQ ID NO: 46, cyclo[Thr-Gln-Asp-Pro-Glu-Asp-Asn-Thr-Ala-Ser]] (cyclo(ASTQDPEDNT)) |  |  | 36.12 | 64.77 | 57.98 |  |  |
| Ac-TQDPEDNTAS-NH2 [SEQ ID NO: 26, Ac-Thr-Gln-Asp-Pro-Glu-Asp-Asn-Thr-Ala-Ser-NH2] | 0.95 | 2.05 | 73.25 | 55.16 | 63.23 | 7.17 ‰ | 2.43 |
| CC(=O)N[C@H](C(=O)N[C@H]1CSSC[C@@H](C(N)=O)NC(=O)[C@H](CC(N)=O)NC(=O)[C@H](CC(=O)O)NC(=O)[C@H](CCC(=O)O)NC(=O)[C@H](C)NC(=O)[C@H](CC(=O)O)NC1=O)[C@@H](C)O [SEQ ID NO: 44, Ac-Thr-cyclo[Cys-Asp-Ala-Glu-Asp-Asn-Cys]-NH2] (Ac-TCDAEDNC-NH2; disulfide 2-8) |  |  | 73.63 | 70.63 | 68.24 |  |  |

— patent US20250388623A1, “PEPTIDE INHIBITOR AND USE THEREOF” (CHENGDU BRILLIANT INSPIRATION BIOTHERAPEUTICS CO., LTD, priority 2022, published 2025)
